Patent US8946266B2, “Substituted triazole and imidazole derivatives as gamma secretase modulators” (Janssen Pharmaceuticals, Inc., priority 2009, dated 2015)

How the values were obtained:
Aβ42 = assay: In vivo efficacy, Method 2: brain soluble Aβ42 lowering 4 h after a single oral dose, ELISA (Table 4b); set-up: species or system mouse; settings: dose 30 mg/kg oral dosing
Summary of the method: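 Overnight-fasted non-transgenic rodents got a single oral dose of 30 mg/kg in 20% Captisol or 20% hydroxypropyl β-cyclodextrin and were killed 4 h later. Right-hemisphere soluble fraction (0.4% DEA/50 mM NaCl extract, neutralised) was assayed for Aβ42 by sandwich ELISA with fluorogenic read-out, compared with untreated animals.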

Aβtotal = assay: In vivo efficacy, Method 2: brain soluble Aβtotal lowering 4 h after a single oral dose, ELISA (Table 4b); set-up: species or system mouse; settings: dose 30 mg/kg oral dosing
Summary of the method: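 Non-transgenic mice or rats, fasted overnight, received a single oral dose (30 mg/kg) in 20% Captisol or 20% hydroxypropyl β-cyclodextrin, or vehicle, and were sacrificed after 4 h. Right brain hemisphere was extracted in 0.4% DEA/50 mM NaCl, and soluble Aβtotal in the high-speed supernatant was measured by sandwich ELISA (JRF/rAβ/2 capture, biotinylated 4G8 detection, fluorogenic read-out).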

## COc1cc(-c2nc(-c3ccccc3)n(C)n2)ccc1-n1cnc(C)c1 [Compound 9]
other
  melting point: 115.8 °C

## COc1cc(-c2nc(Nc3ccc(F)cc3C(F)(F)F)n(C)n2)ccc1-n1cnc(C)c1 [Compound 15]
Aβ42
  Aβ42 (% Ctrl) _Mean: 37 % Ctrl
Aβtotal
  Aβtotal (% Ctrl) _Mean: −5 % Ctrl

## COc1cc(-c2nc(Nc3cccc(C(F)(F)F)c3)n(C)n2)ccc1-n1cnc(C)c1 [Compound 146]
Aβ42
  Aβ42 (% Ctrl) _Mean: 17 % Ctrl
Aβtotal
  Aβtotal (% Ctrl) _Mean: 2 % Ctrl
